In paper PMC11859423, “Fluorescent Probes to Image the KCa3.1 Channel in Tumor Cells” (Pharmaceutics, 2025):
“Also recorded” adds a separate entry of the source.

Biological target: T1, KCa3.1 channel in A549-3R cells (Homo sapiens, UniProt O15554)
T1 construct: the non-small cell lung cancer cell line A549-3R with a high expression of the KCa3.1 channel was employed; endogenous in cells; host or cells: A549-3R cells
Experiment: Whole-cell patch clamp on A549-3R cells after channel opening with 1-EBIO
Assay type: cell-based
Description: Bath solution: 140 mM NaCl, 5 mM KCl, 10 mM HEPES, 1 mM MgCl2 and 1 mM CaCl2 in an aqueous solution; pH = 7.4 with NaOH.
Pipette solution: 140 mM KCl, 10 mM HEPES, 1.3 mM EGTA, 1 mM MgCl2 and 1.217 mM CaCl2 in an aqueous solution; pH = 7.4 with NaOH; free Ca^2+ concentration of 1 µM.
1-EBIO solution: 100 mM stock solution of 1-ethylbenzimidazolone (1-EBIO) in DMSO was diluted with the bath solution to 50 µM.
Test solution: A 10 mM stock solution of imaging compound 10b in DMSO was diluted with the bath solution to 1 µM.
Senicapoc solution: 10 mM stock solution of senicapoc (3) in DMSO was diluted with bath solution to 1 µM.
Whole-cell patch clamp experiments were conducted at room temperature using borosilicate glass pipettes (GC150TF-10, Harvard Ltd., Boston, MA, USA) connected to an EPC-10 amplifier (HEKA Electronics, Lambrecht, Germany). […] Current density was calculated by dividing the current amplitude determined at the end of the depolarization voltage ramp to +60 mV by the membrane capacitance obtained from the slow capacitance compensation. The calculated free Ca^2+ concentration of the pipette solution was 1 µmol/L to obtain full activation of the KCa channels during the patch clamp experiments. […] A multi-barreled application pipette with a tip diameter of ~100 µm was used for test solution applications close to the recorded cell. […]

Structure (SMILES): CCC1=C(C)C2=C(c3ccc(OCCOCCn4cc(COc5ccc(C(C(N)=O)(c6ccccc6)c6ccc(F)cc6)cc5)nn4)cc3)c3c(C)c(CC)c(C)n3[B-](F)(OC)[N+]2=C1C (centres unmarked) [10b, 2-{4-[(1-{2-[4-(2,6-Diethyl-4-fluoro-4-methoxy-1,3,5,7-tetramethyl-4-bora-3a,4a-diaza-s-indacen-8-yl)phenoxy]ethoxyethyl}-1,2,3-triazol-4-yl)methoxy]phenyl}-2-(4-flluorophenyl)-2-phenylacetamide]
- inhibitory activity compared with senicapoc (1 µM each, channel opened with 1-EBIO): only slightly lower than the inhibitory activity of senicapoc
- inhibition of the KCa3.1 ion channel current (1 µM, channel opened with 50 µM 1-EBIO, whole A549-3R cells): inhibited the ion channel considerably; also recorded: inhibited the ion current
